According to ChEMBL document CHEMBL1201862, “PubChem BioAssay data set” (2004):
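1) Cells in 96-well plates. 2) Compound, 48 h, 5 concentrations. 3) Linear interpolation between surrounding doses. 4) Unreached endpoint = highest concentration. GI50 is the concentration that inhibits growth by half.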 Calls of active or inactive are those of the source. No stated cut-off is given here; in the data, active = GI50 up to about 1.1 µM and inactive = higher.

Columns and labels:
Test in all cases: NCI tumour cell line growth inhibition, 48 h
DLD-1 = tested on: DLD-1
DMS-114 = tested on: DMS-114
HOP-18 = tested on: HOP-18
KM-20L2 = tested on: KM-20L2
LXFL 529 = tested on: LXFL 529
SNB-78 = tested on: SNB-78
XF498 = tested on: XF498
RXF 631 = tested on: RXF 631
Hs-578T = tested on: Hs-578T

Measured: GI50

Clc1cc2nsnc2c(Cl)n1
inactive: DLD-1 20.3 µM | DMS-114 15.6 µM | HOP-18 17.5 µM | KM-20L2 37.6 µM | LXFL 529 14.4 µM | SNB-78 56.4 µM | XF498 17.3 µM

COc1ccc(N(CC(=O)O)S(=O)(=O)c2ccccc2)cc1
inactive: DLD-1 > 100 µM | HOP-18 > 100 µM | KM-20L2 > 100 µM | LXFL 529 > 100 µM | RXF 631 > 100 µM | XF498 > 100 µM

C=CC1(C)CCC2=C(CCC3C(C)(C(=O)OC)CCCC23C)C1=O (centres undefined)
inactive: DLD-1 18.5 µM | DMS-114 15.3 µM | KM-20L2 21.3 µM | LXFL 529 18.5 µM | RXF 631 16.2 µM | SNB-78 18.8 µM

OCCN1CCN(CCO)Cc2ccccc2OCCOc2ccccc2C1
inactive: DLD-1 > 100 µM | DMS-114 > 100 µM | KM-20L2 > 100 µM | LXFL 529 64.4 µM | RXF 631 > 100 µM | SNB-78 > 100 µM

CS(=O)(=O)OCCCNCCCOS(C)(=O)=O
inactive: DLD-1 2810 µM | DMS-114 849 µM | HOP-18 1420 µM | Hs-578T 2090 µM | KM-20L2 1990 µM | SNB-78 2100 µM | XF498 938 µM

N#CC1C(=O)C(=O)N(c2ccccc2)C1=O (centres undefined)
inactive: DMS-114 > 100 µM | HOP-18 > 100 µM | KM-20L2 > 100 µM | LXFL 529 > 100 µM | RXF 631 > 100 µM | SNB-78 > 100 µM | XF498 > 100 µM

CC12CC3CC(C1)CC(N=[N+]=[N-])(C3)C2
inactive: DLD-1 > 100 µM | DMS-114 > 100 µM | HOP-18 > 100 µM | KM-20L2 > 100 µM | LXFL 529 > 100 µM | RXF 631 > 100 µM | SNB-78 > 100 µM | XF498 > 100 µM

O=C(CC1Sc2ccccc2NC1=O)Nc1ccc(Cl)cc1 (centres undefined)
inactive: DLD-1 > 100 µM | DMS-114 48.4 µM | HOP-18 20 µM | KM-20L2 89.1 µM | LXFL 529 > 100 µM | RXF 631 83.6 µM | SNB-78 > 100 µM | XF498 > 100 µM

COC(=O)c1sc(=O)n(-c2ccccc2)c1SCc1ccccc1
inactive: DLD-1 > 100 µM | HOP-18 > 100 µM | KM-20L2 > 100 µM | LXFL 529 > 100 µM | RXF 631 > 100 µM | XF498 > 100 µM

CC1CC(C)(O)C2C3(C)CCCC2(COC3=O)C12CCC1(CCOC1=O)O2 (centres undefined)
inactive: DLD-1 > 250 µM | DMS-114 > 250 µM | HOP-18 > 250 µM | KM-20L2 > 250 µM | SNB-78 > 250 µM | XF498 38.3 µM

CCOC(=O)C1S/C(=N\c2ccc(Cl)cc2Cl)N=C1C (centres undefined)
inactive: DLD-1 73.6 µM | DMS-114 33.1 µM | HOP-18 > 100 µM | KM-20L2 > 100 µM | LXFL 529 75.2 µM | SNB-78 60.7 µM | XF498 39.5 µM
